Tests used:
[1] = molecular target: T1, human β-secretase (sBACE-Fc, soluble part AA 1-AA 460) (Homo sapiens (Human), UniProt P56817); assay: TR-FRET assay; format: biochemical; conditions: TruPoint BACE1 substrate 100 nM, pH 4.5, 15 min at r.t.
Protocol: (§1) The β-secretase enzyme used in the TR-FRET is prepared as follows:
(§2) The cDNA for the soluble part of the human 13-Secretase (AA 1-AA 460) was cloned using the ASP2-Fc10-1-IRES-GFP-neoK mammalian expression vector. The gene was fused to the Fc domain of IgG1 (affinity tag) and stably cloned into HEK 293 cells.
(§3) The enzyme (truncated form) was diluted to 6 μg/mL (stock 1.3 mg/mL) and the TruPoint BACE1 Substrate to 200 nM (stock 120 μM) in reaction buffer (NaAcetate, chaps, triton x-100, EDTA pH4.5). The robotic systems Biomek FX and Velocity 11 were used for all liquid handling and the enzyme and substrate solutions were kept on ice until they were placed in the robotic system. Enzyme (9 μL) was added to the plate then 1 μL of compound in dimethylsulphoxide was added, mixed and pre-incubated for 10 minutes. Substrate (10 μL) was then added, mixed and the reaction proceeded for 15 minutes at r.t. The reaction was stopped with the addition of Stop solution (7 μL, NaAcetate, pH 9). The fluorescence of the product was measured on a Victor II plate reader with an excitation wavelength of 340 nm and an emission wavelength of 615 nm. The assay was performed in a Costar 384 well round bottom, low volume, non-binding surface plate (Corning #3676). […] The dimethylsulphoxide control, instead of test compound, defined the 100% activity level and 0% activity was defined by wells lacking enzyme (replaced with reaction buffer).

[2] = test system: sAPPβ release in SH-SY5Y cells; assay: sAPPβ release assay; format: cell-based; conditions: Homo sapiens, 17 h incubation
Protocol: SH-SY5Y cells were cultured in DMEM/F-12 with Glutamax, 10% FCS and 1% non-essential amino acids and cryopreserved and stored at −140° C. at a concentration of 7.5-9.5×10^6 cells per vial. Thaw cells and seed at a conc. of around 10000 cells/well in DMEM/F-12 with Glutamax, 10% FCS and 1% non-essential amino acids to a 384-well tissue culture treated plate, […] cell susp/well. The cell plates were then incubated for 7-24 h at 37° C., 5% CO2. The cell medium was removed, followed by addition of 30 μL compound diluted in DMEM/F-12 with Glutamax, 10% FCS, 1% non-essential amino acids and 1% PeSt to a final conc. of 1% DMSO. The compounds were incubated with the cells for 17 h (overnight) at 37° C., 5% CO2. Meso Scale Discovery (MSD) plates were used for the detection of sAPPβ release. MSD sAPPβ plates were blocked in 1% BSA in Tris wash buffer (40 μL/well) for 1 h on shake at r.t. and washed 1 time in Tris wash buffer (40 μL/well). 20 μL of medium was transferred to the pre-blocked and washed MSD sAPPβ microplates, and the cell plates were further used in an ATP assay to measure cytotoxicity. The MSD plates were incubated with shaking at r.t. for 2 h and the media discarded. 10 μL detection antibody was added (1 nM) per well followed by incubation with shaking at r.t. for 2 h and then discarded. 40 μL Read Buffer was added per well and the plates were read in a SECTOR Imager.

[3] = molecular target: T1, human β-secretase (sBACE-Fc, soluble part AA 1-AA 460); assay: Diluted TR-FRET assay; format: biochemical; conditions: 50 times less enzyme, 6.5 h reaction time at r.t. in the dark; read-out: IC50 from the diluted FRET assay
Protocol: as §1, §2
as §3, with “The enzyme (truncated form) was diluted to 6 μg/mL (stock 1.3 mg/mL) and the TruPoint BACE1 Substrate to 200 nM (stock 120 μM) in reaction buffer (NaAcetate, chaps, triton x-100, EDTA pH4.5).” left out, “Substrate (10 μL) was then added, mixed and the reaction proceeded for 15 minutes at r.t.” left out

T1 sequence (P56817 22-460): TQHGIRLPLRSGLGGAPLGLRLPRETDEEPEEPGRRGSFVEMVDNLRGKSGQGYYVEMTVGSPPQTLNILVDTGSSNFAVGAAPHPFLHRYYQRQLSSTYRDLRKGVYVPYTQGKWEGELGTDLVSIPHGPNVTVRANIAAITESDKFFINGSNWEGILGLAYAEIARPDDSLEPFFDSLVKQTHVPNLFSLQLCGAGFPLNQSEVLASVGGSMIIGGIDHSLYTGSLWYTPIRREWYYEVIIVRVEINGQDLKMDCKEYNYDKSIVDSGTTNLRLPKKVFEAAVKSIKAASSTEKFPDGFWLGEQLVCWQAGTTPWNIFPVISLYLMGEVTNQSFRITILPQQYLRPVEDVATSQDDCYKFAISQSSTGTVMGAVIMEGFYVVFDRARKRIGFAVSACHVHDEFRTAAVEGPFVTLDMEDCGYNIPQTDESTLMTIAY

SMILES | IC50 [1] [nM] | IC50 [2] [nM] | IC50 [3] [nM]
CC#Cc1cncc(-c2ccc3c(c2)C2(C=C(F)C(N)=N2)[C@]2(CC[C@H](OC)CC2)C3)c1 (stereo partly drawn) [Example 3, (1r,4r)-4″-Fluoro-4-methoxy-6′-[5-(prop-1-yn-1-yl)pyridin-3-yl]-3′H-dispiro[cyclohexane-1,2′-indene-1′,2″-pyrrol]-5″amine] | 18 | 0.031 | –
CC1(C)COc2ccc(-c3cncnc3)cc2C12C=C(F)C(N)=N2 (stereo not drawn) [Example 6, 4′-Fluoro-3,3-dimethyl-6-(pyrimidin-5-yl)spiro[chroman-4,2′-pyrrol]-5′-amine] | 770 | 19 | –
CC1(C)Cc2ccc(-c3cncnc3)cc2C12C=C(F)C(N)=N2 (stereo not drawn) [Example 9, 4′-fluoro-2,2-dimethyl-6-(pyrimidin-5-yl)-2,3-dihydrospiro[indene-1,2′-pyrrol]-5′-amine] | 3790 | 168 | –
CC#Cc1cncc(-c2ccc3c(c2)C2(C=C(F)C(N)=N2)[C@]2(CC[C@@H](OC)CC2)C3)c1 (stereo partly drawn) [Example 4, (1s,4s)-4″-Fluoro-4-methoxy-6′-[5-(prop-1-yn-1-yl)pyridin-3-yl]-3′H-dispiro[cyclohexane-1,2′-indene-1′,2″-pyrrol]-5″amine] | 258 | 1.1 | –
CO[C@H]1CC[C@]2(CC1)Cc1ccc(-c3cncnc3)cc1C21C=C(F)C(N)=N1 (stereo partly drawn) [Example 1, (1r,4r)-4″-fluoro-4-methoxy-6′-(pyrimidin-5-yl)-3′H-dispiro[cyclohexane-1,2′-indene-1,2″-pyrrol]-5″amine] | – | 1.1 | 22
CC1(C)COc2ccc(-c3cncc(F)c3)cc2C12C=C(F)C(N)=N2 (stereo not drawn) [Example 7, 4′-Fluoro-6-(5-fluoropyridin-3-yl)-3,3-dimethylspiro[chroman-4,2′-pyrrol]-5′-amine] | 770 | 30 | –
CO[C@H]1CC[C@@]2(CC1)Cc1ccc(-c3cncnc3)cc1C21C=C(F)C(N)=N1 (stereo partly drawn) [Example 2, (1s,4s)-4″-Fluoro-4-methoxy-6′-(pyrimidin-5-yl)-3′H-dispiro[cyclohexane-1,2′-indene-1,2″-pyrrol]-5″amine] | 1970 | 56 | –
CC1(C)COc2ccc(-c3cc(F)cc(F)c3)cc2C12C=C(F)C(N)=N2 (stereo not drawn) [Example 8, 6-(3,5-Difluorophenyl)-4′-fluoro-3,3-dimethylspiro[chroman-4,2′-pyrrol]-5′-amine] | 640 | 256 | –
CO[C@H]1CC[C@]2(CC1)Oc1ccc(-c3cc(F)cc(C#N)c3)cc1C21C=C(F)C(N)=N1 (stereo partly drawn) [Example 5, 3-[(1s,4s)-5″-Amino-4″-fluoro-4-methoxydispiro[cyclohexane-1,2′-[1]benzofuran-3′,2″-pyrrol]-5′-yl]-5-fluorobenzonitrile] | 71 | 3 | –

Source: patent publication US9650336B2, “Mono-fluoro beta-secretase inhibitors” (ASTRAZENECA AB, priority 2011, dated 2017)
